Structures are written as SMILES.

The values below come from patent publication US4730060A, “Carbacyclin derivatives, method of manufacturing the same and therapeutic agents containing these compounds” (Kotobuki Seiyaku Co. Ltd., priority 1986, dated 1988).

In one data set the test system is ethanol-induced ulcer. Briefly: Anti-ulcer activities, ethanol-induced ulcer. The class given is in vivo. As to conditions: po, 1 h, rat, perorally, 30 min before ethanol; for inhibition in vivo at 0.1 mg/kg: dose 100 μg/kg; for inhibition in vivo at 0.03 mg/kg: dose 30 μg/kg; for inhibition in vivo at 0.01 mg/kg: dose 10 μg/kg; for inhibition in vivo at 0.3 mg/kg: dose 300 μg/kg. The protocol:
1. Anti-ulcer activities, Ethanol-induced ulcer
Inhibitory effects of ethanol-induced ulcer are determined by the method of A. Robert (Gastroenterology 77, 433-43). Rats are fasted for 24 hrs. and are given 1 ml of absolute ethanol perorally. 1 hour after administration of ethanol, the stomach of the rat is removed. The length of each ulcer occurring in the grandulor stomach is determined and each ulcer in one rat is acounted as ulcer-index. The test compounds are given perorally 30 minutes before ethanol administration.

A short description of data set [1]: Stability test in buffer solutions, by thin layer chromatography. The class given is physicochemical. Particulars: pH 7.4, room temperature, 2 months. The protocol:
About 1.5 mg of test compound was dissolved in a drop of methanol and diluted in each 1.5 ml of a buffer solution *adjusted to pH 5.2, 7.2, 7.4, 9.2, respectively. Stability test was carried out at 37° C. in the case of pH 5.2, 7.2, 9.2 and at room temperature in the case of pH 7.4,.
Using a thin layer chromatography as the identification method, the test solution in each buffer solution of pH 5.2, 7.2, 7.4 was extracted with ethyl acetate and in the case of the test solution of […], it was diluted with water, acidified at pH 4 with 10% HCl and extracted with ethyl acetate.
*pH 5.2 (0.2M Pottasium hydrogen phthalate)

In general, inhibition in vivo refers to the change of the read-out against control, counted positive when it falls. Low values mean a weak effect, high ones a strong effect. In turn, `O=C(O)CCCC=C1C[C@H]2C[C@@H](O)[C@H](/C=C/[C@@H](O)c3ccc4c(c3)OCCO4)[C@H]2C1` [Compound 1, 15α-Hydroxy-15-(benzodioxane-6-yl)-carbacyclin] gave an inhibition in vivo at 0.1 mg/kg in the data set with ethanol-induced ulcer of 41.6%.

`O=C(O)CCCC=C1C[C@H]2C[C@@H](O)[C@H](C#C[C@@H](O)C3Cc4ccccc4C3)[C@H]2C1` [Compound 3, 13,14-Dehydro-15α-hydroxy-15-(indan-2-yl)-carbacyclin] displayed an inhibition in vivo at 0.03 mg/kg in the data set with ethanol-induced ulcer of 93.4%.

As to `O=C(O)CCCC=C1C[C@H]2C[C@@H](O)[C@H](/C=C/[C@@H](O)C3COc4ccccc4O3)[C@H]2C1` (stereo partly drawn) [Compound 5, 15α-Hydroxy-15-(benzodioxane-2-yl)-carbacyclin], the “Stability (change in thin layer chromatography)” value in data set [1] was “No change”. Also, the inhibition in vivo at 0.01 mg/kg in the data set on ethanol-induced ulcer was found to be 71.9%.

Regarding `O=C(O)CCCC=C1C[C@H]2C[C@@H](O)[C@H](/C=C/[C@@H](O)C3Cc4ccccc4C3)[C@H]2C1` [Compound 7, 15α-Hydroxy-15-(indan-2-yl)-carbacyclin], in the data set on ethanol-induced ulcer, 0.1 mg/kg produced 68.7% inhibition in vivo. As for `Cc1ccc2c(c1)OCC([C@H](O)/C=C/[C@@H]1[C@H]3CC(=CCCCC(=O)O)C[C@H]3C[C@H]1O)O2` (stereo partly drawn) [Compound 9, 15α-Hydroxy-15-(6-methylbenzodioxane-2-yl)-carbacyclin], the inhibition in vivo at 0.3 mg/kg in the data set on ethanol-induced ulcer came to 80.6%. In the data set on ethanol-induced ulcer, `COc1ccc2c(c1)OCC([C@H](O)/C=C/[C@@H]1[C@H]3CC(=CCCCC(=O)O)C[C@H]3C[C@H]1O)O2` (stereo partly drawn) [Compound 11, 15α-Hydroxy-15-(6-methoxybenzodioxane-2-yl)-carbacyclin] had an inhibition in vivo at 0.03 mg/kg of 82.1%.

For `CC1([C@H](O)/C=C/[C@@H]2[C@H]3CC(=CCCCC(=O)O)C[C@H]3C[C@H]2O)COc2ccccc2O1` (stereo partly drawn) [Compound 17, 15β-Hydroxy-15-(2-methylbenzodioxane-2-yl)-carbacyclin], at 0.1 mg/kg the inhibition in vivo in the data set on ethanol-induced ulcer was 72.6%. Turning to `O=C(O)CCCC=C1C[C@H]2C[C@@H](O)[C@H](/C=C/[C@@H](O)C3Cc4ccc([N+](=O)[O-])cc4C3)[C@H]2C1` (stereo partly drawn) [Compound 23, 15α-Hydroxy-15-(5-nitroindan-2-yl)-carbacyclin], in the data set on ethanol-induced ulcer, 0.3 mg/kg produced 98.9% inhibition in vivo.

Compound `CC1([C@H](O)/C=C/[C@@H]2[C@H]3CC(=CCOCC(=O)O)C[C@H]3C[C@H]2O)Cc2ccccc2C1` [Compound 33, 15α-Hydroxy-15-(2-methylindan-2-yl)-3-oxa-carbacyclin] had an inhibition in vivo at 0.03 mg/kg in the data set on ethanol-induced ulcer of 47.6%.

Regarding `O=C(O)COCC=C1C[C@H]2C[C@@H](O)[C@H](/C=C/[C@@H](O)C3Cc4ccccc4C3)[C@H]2C1` [Compound 35, 15α-Hydroxy-15-(indan-2-yl)-3-oxa-carbacyclin], the inhibition in vivo at 0.03 mg/kg with ethanol-induced ulcer was determined as 44.6%. In the data set with ethanol-induced ulcer, `O=C(O)COCC=C1C[C@H]2C[C@@H](O)[C@H](/C=C/[C@@H](O)C3COc4ccccc4O3)[C@H]2C1` (stereo partly drawn) [Compound 37, 15α-Hydroxy-15-(1,4-benzodioxane-2-yl)-3-oxa-carbacyclin] displayed an inhibition in vivo at 0.1 mg/kg of 51.6%. In the data set with ethanol-induced ulcer, `CC1([C@H](O)/C=C/[C@@H]2[C@H]3CC(CCOCC(=O)O)=C[C@H]3C[C@H]2O)Cc2ccccc2C1` [Compound 41, 15α-Hydroxy-15-(2-methylindan-2-yl)-3-oxa-isocarbacyclin] gave an inhibition in vivo at 0.01 mg/kg of 64.2%. For `O=C(O)COCCC1=C[C@H]2C[C@@H](O)[C@H](/C=C/[C@@H](O)C3Cc4ccccc4C3)[C@H]2C1` [Compound 43, 15α-Hydroxy-15-(indan-2-yl)-3-oxa-isocarbacyclin], in the data set on ethanol-induced ulcer, at 0.1 mg/kg the inhibition in vivo was 51.8%. For `O=C(O)COCCC1=C[C@H]2C[C@@H](O)[C@H](/C=C/[C@@H](O)C3COc4ccccc4O3)[C@H]2C1` (stereo partly drawn) [Compound 45, 15α-Hydroxy-15-(1,4-benzodioxane-2-yl)-3-oxa-isocarbacyclin], in the data set with ethanol-induced ulcer, the inhibition in vivo at 0.01 mg/kg amounted to 58.9%.
